Entries after “also recorded” stand apart in the source; their conditions may differ.
Columns and labels:
interleukin-1β = details: cited from earlier work
[1] = system: other members of the interleukin-1 family, including interleukin-1 alpha; details: cited from earlier work
[2] = system: mouse models of acute gout; details: in vivo; cited from earlier work
[3] = system: AR(−)/IL1β(+) human prostate cancer cells; experiment: skeletal metastasis model: human prostate cancer cells inoculated via the left cardiac ventricle of mice; type: in vivo, mouse; details: subcutaneous anakinra from 24 hours before inoculation, then daily, FIGS. 3A-3B
Experimental: Male C.B17-SC mice (Taconic) at six to eight weeks of age were anesthetized with ketamine (80 mg/kg) and xylazine (10 mg/kg) prior being inoculated with cancer cells via the left cardiac ventricle. For anakinra treatment, animals received an initial subcutaneous dose of vehicle (PBS) or anakinra (Swedish Orphan Biovitrum) 24 hours prior to cancer cell inoculation, then additional doses at the time of xenograft and daily thereafter until sacrifice.
Prior to each weekly imaging session, animals were injected IP with 150 mg/kg D-Luciferin (PerkinElmer) and allowed to rest for ten minutes, then anesthetized using 3% isoflurane and transferred to the chamber of an IVIS Lumina XR (PerkinElmer), where they received 2% isoflurane throughout image acquisition. […]
Fluorescent images of skeletal metastases were collected as described in Liu et al., 2013, Cancer Res. 73:3297-305. In experiments assessing arrival/colonization of the bone, animals were sacrificed and femora and tibia were imaged and processed using Nuance software and a standardized spectral library and total GFP-positive DTCs counted in the knee joint of each animal. Lung tissues from the same animals were sectioned at 80 μm at intervals across the organ and images of five random fields analyzed as described. […]

[4] = system: human bone mesenchymal stem cells; experiment: induction of Carcinoma Associated Fibroblasts phenotype in human bone mesenchymal stem cells by IL1β or PC3-ML conditioned medium; type: cell-based; details: hMSCs exposed to IL1β or conditioned medium from PC3-ML cells
Experimental: DU-145, 22Rv1. LNCaP, and VCaP human prostate cancer cell lines were purchased from ATCC: the PC3-ML cell line was derived from the parental PC-3 cell line as described in Wang M, Stearns M E, Isolation and characterization of PC-3 human prostatic tumor sublines which preferentially metastasize to select organs in S.C.I.D. mice. Differentiation. 1991; 48:115-25. All cell lines were authenticated by short tandem repeat profiling by IDEXX Radil and/or DDC Medical. Cells were cultured in Dulbecco's Modified Eagle Medium (DU-145, VCaP, and PC3-ML) or RPMI-1460 (22Rv1 and LNCaP) containing 10% fetal bovine serum and 0.1% gentamicin. Bone marrow-derived Human Mesenchymal Stem cells (Lonza) were used between passage 5 and 8 and cultured in α-MEM supplemented with 10% FBS, 1 ng/ml bFGF (R&D), and 0.1% gentamicin. Each cell line was cultured at 37° C. and 5% CO2 and discarded 10 passages following thawing. […]
Cell lysates were obtained and Western Blotting analysis was performed as previously described. […] Chemiluminescent signals were obtained using SuperSignal West Femto substrate (Pierce) and detected with the Fluorochem 8900 imaging system and related software. […]

In the case of CSc1ccc(-c2nn(Cc3ccccc3)c(=O)cc2-c2ccc(Cl)cc2)cc1 [K-832, 2-benzyl-5-(4-chlorophenyl)-6-[4-(methylthio)phenyl]-2H-pyridazin-3-one], the “inhibitory activity against production of interleukin-1β” value (interleukin-1β) is given as “high inhibitory activity”.
In the case of “Canakinumab: a human monoclonal antibody targeted at interleukin-1 beta”, the “cross-reactivity with other members of the interleukin-1 family” value [1] is listed as “no cross-reactivity”.
For “XOMA-052: a potent anti-IL1β humanized neutralizing antibody”, the “activity in mouse models of acute gout” value [2] is given as “active”.
With “anakinra: recombinant, non-glycosylated version of human IL1 receptor antagonist prepared from cultures of genetically modified E. coli” the “progression at the skeletal level of human prostate cancer cells (bone metastatic tumor burden)” value [3] was “significantly impaired; also recorded: much less prone to skeletal colonization”, the “morphological changes in alpha smooth muscle actin (CAF phenotype)” value ([4]; FIG. 4A) was “inhibited” and the “expression of the S100 A4 marker (CAF phenotype)” value ([4]; FIG. 4B) was “inhibited”.

Reference: patent US10517933B2, “Method of treating androgen receptor negative prostate tumors and their metastases” (DREXEL UNIVERSITY, priority 2015, dated 2019)
